The nature of data set [1]: Microsomal stability assay, human liver microsomes. Particulars: pH 7.4. Type of data set: in vitro ADME. Background: Liver microsomes are a subcellular fraction often used to study metabolism.
Data set [2] is described as follows: in vitro. Type of data set: in vitro ADME. Particulars: rat, microsomes, pH 7.4.
Data set [3] deals with wild-type HIV-1 NL4-3. As to the kind of experiment: Anti-HIV activity against wild-type HIV-1 NL4-3 infection of TZM-bl cells. Format: cell-based. The note with it: HIV-1 NL4-3 wild-type.
The test system of data set [4] is TZM-bl cells. The note with it: read-out: CC50, cytotoxicity to 50% of cells, published previously; cited from earlier work.

Some results are limits rather than exact numbers.

On to `Cc1cc(/C=C/C#N)cc(C)c1Oc1cc(Nc2ccc(C#N)cc2)c(N)cc1CO` [Compound 9e], for which the microsomal CLint at 1 μM in data set [1] worked out at 230 µL/min/mg.

Consider `Cc1cc(/C=C/C#N)cc(C)c1Nc1ccnc(Nc2ccc(C#N)cc2)n1` [Compound 2, rilpivirine], for which the figures for the microsomal CLint at 1 μM in data set [2] and in data set [1] were 57 µL/min/mg and 200 µL/min/mg, respectively.

Take `COC(=O)c1cc(N)c(Nc2ccc(C#N)cc2)cc1Oc1c(C)cc(/C=C/C#N)cc1C` [Compound 9a]: the “Selectivity index (SI), ratio of CC50/EC50” value in data set [3] is reported as greater than 8465.

For the compound `Cc1cc(/C=C/C#N)cc(C)c1Oc1cc(Nc2ccc(C#N)cc2)c(N)cc1[N+](=O)[O-]` [Compound 3], the cytotoxic concentration (CC50) in data set [4] is greater than 47.1 µM. The intrinsic metabolic clearance (microsomal CLint) at 1 μM was 50 µL/min/mg in data set [2] and 150 µL/min/mg in data set [1].

`Cc1cc(/C=C/C#N)cc(C)c1Oc1cc(Nc2ccc(C#N)cc2)c(N)cc1C(N)=O` [Compound 9c]: the microsomal CLint at 1 μM in data set [2] was 57 µL/min/mg; in data set [1], 200 µL/min/mg.

By microsomal CLint is commonly meant a measure of how fast metabolising enzymes remove a compound, apart from limits set by blood flow. Low readings indicate greater metabolic stability, high ones faster metabolism. The CC50 is the concentration giving 50% cytotoxicity.

(Values after PMC3309038 (Bioorganic & medicinal chemistry letters, 2012).)
